Patent US11795169B2, “MAP4K4 inhibitors” (IMPERIAL COLLEGE INNOVATIONS LIMITED, priority 2017, dated 2023)

What was measured:
[1] = molecular target: human MAP4K4 kinase domain (Homo sapiens (Human), UniProt O95819); assay: MAP4K4 kinase activity, CisBio HTRF Transcreener ADP assay; type: biochemical; details: ATP at Km (10 μM), 0.5 nM kinase domain, 2 h; read-out: MAP4K4
From the text: Compounds of the present invention were screened for their inhibitory activity against MAP4K4, versus selected off-target hits found with early members of this chemical series. MAP4K4 kinase activity was monitored using the CisBio HTRF Transcreener ADP assay, acompetitive immunoassay with a reproducible Z′>0.6. In the detection step, endogenous ADP and d2-labeled ADP compete for binding an anti-ADP monoclonal antibody labelled with Eu^3+ cryptate. A ratiometric fluorescent read-out is used at 665 and 620 nm. […] Assays were run in Greiner low volume plates with a final reaction volume of 10 μl. The MAP4K4 inhibition data are provided in Table 33 below for selected compounds of the present invention. The data has been categorised based on the IC50 value of the compound as “A”, “B” or “C”.

[2] = tested on: CorV.4U cardiomyocytes (hiPSC-CMs); assay: Protection of CorV.4U cardiomyocytes from H2O2 or menadione (luminescent cell viability assay, human cardiac troponin assay); type: cell-based; details: Homo sapiens, Cardiomyocyte; read-out: EC50, protection of human cardiomyocytes
From the text: To substantiate the hypothesis that pharmacological inhibition of MAP4K4 would confer resistance to cell death in human cardiomyocytes, cytoprotection was next assessed using hiPSC-CMs.

human MAP4K4 kinase domain, sequence (O95819 25-289): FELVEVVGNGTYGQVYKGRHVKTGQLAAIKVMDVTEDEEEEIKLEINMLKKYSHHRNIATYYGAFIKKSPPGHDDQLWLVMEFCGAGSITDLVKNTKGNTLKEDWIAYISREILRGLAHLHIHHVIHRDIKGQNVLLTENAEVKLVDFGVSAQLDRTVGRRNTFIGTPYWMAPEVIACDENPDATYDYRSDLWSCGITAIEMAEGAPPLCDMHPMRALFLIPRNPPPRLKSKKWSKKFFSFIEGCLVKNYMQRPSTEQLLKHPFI

CC(C)(O)CCOc1ccc(-c2cn(-c3ccccc3)c3nc[nH]c(=O)c23)cc1 [Ex-40, 5-(4-(3-hydroxy-3-methylbutoxy)phenyl)-7-phenyl-3,7-dihydro-4H-pyrrolo[2,3-d]pyrimidin-4-one]
IC50 [1]: ≤ 100 nM | EC50 [2]: < 1000 nM

NC(=O)Cc1ccc(-c2cn(-c3ccccc3)c3nc[nH]c(=O)c23)cc1 [Ex-83, 2-[4-(4-Oxo-7-phenyl-4,7-dihydro-3H-pyrrolo[2,3-d]pyrimidin-5-yl)-phenyl]-acetamide]
IC50 [1]: ≤ 100 nM

O=c1[nH]cnc2c(-c3ccc(OCCCN4CCOCC4)cc3)cn(-c3ccccc3)c12 [Ex-84, 7-[4-(3-Morpholin-4-yl-propoxy)-phenyl]-5-phenyl-3,5-dihydro-pyrrolo[3,2-d]pyrimidin-4-one]
IC50 [1]: 100 to 1000 nM

COc1ccc(-n2cc(-c3ccc(OCCCN(C)C)cc3)c3nc[nH]c(=O)c32)cc1 [Ex-85]
IC50 [1]: ≤ 100 nM

CN1CCC(Oc2ccc(-c3cn(-c4ccccc4)c4c(=O)[nH]cnc34)cc2)CC1 [Ex-86]
IC50 [1]: ≤ 100 nM

CC(C)(O)COc1ccc(-c2cn(-c3ccccc3)c3c(=O)[nH]cnc23)cc1 [Ex-87]
IC50 [1]: > 1000 nM

O=c1[nH]cnc2c(-c3ccc(OCC(O)CO)cc3)cn(-c3ccccc3)c12 (stereo not shown) [Ex-88, 7-[4-(2,3-Dihydroxypropoxy)-phenyl]-5-phenyl-3,5-dihydropyrrolo[3,2-d]pyrimidin-4-one]
IC50 [1]: 100 to 1000 nM

O=c1[nH]cnc2c(-c3ccc(OCC(O)CN4CCOCC4)cc3)cn(-c3ccccc3)c12 (stereo not shown) [Ex-89]
IC50 [1]: 100 to 1000 nM

CN(CC(O)COc1ccc(-c2cn(-c3ccccc3)c3c(=O)[nH]cnc23)cc1)C1CC1 (stereo not shown) [Ex-90]
IC50 [1]: 100 to 1000 nM

O=c1[nH]cnc2c(-c3ccc(OCC(O)CN4CCCC4)cc3)cn(-c3ccccc3)c12 (stereo not shown) [Ex-91]
IC50 [1]: 100 to 1000 nM

C[C@@H](O)COc1ccc(-c2cn(-c3ccccc3)c3c(=O)[nH]cnc23)cc1 [Ex-92]
IC50 [1]: 100 to 1000 nM

C[C@H](O)COc1ccc(-c2cn(-c3ccccc3)c3c(=O)[nH]cnc23)cc1 [Ex-93]
IC50 [1]: > 1000 nM

O=c1[nH]cnc2c(-c3ccc(OCC4CCNC4)cc3)cn(-c3ccccc3)c12 (stereo not shown) [Ex-94, 5-Phenyl-7-[4-(pyrrolidin-3-ylmethoxy)-phenyl]-3,5-dihydro-pyrrolo[3,2-d]pyrimidin-4-one]
IC50 [1]: > 1000 nM

CN1CCC(COc2ccc(-c3cn(-c4ccccc4)c4c(=O)[nH]cnc34)cc2)C1 (stereo not shown) [Ex-95, 7-[4-(1-Methyl-pyrrolidin-3-ylmethoxy)-phenyl]-5-phenyl-3,5-dihydro-pyrrolo[3,2-d]pyrimidin-4-one]
IC50 [1]: > 1000 nM

CCOC(=O)c1cccc(-c2cn(-c3ccccc3)c3c(=O)[nH]cnc23)c1 [Ex-96, 3-(4-Oxo-5-phenyl-4,5-dihydro-3H-pyrrolo[3,2-d]pyrimidin-7-yl)-benzoic acid ethyl ester]
IC50 [1]: > 1000 nM

O=c1[nH]cnc2c(-c3ccccc3)cn(-c3ccccc3)c12 [Ex-97]
IC50 [1]: ≤ 100 nM

CCOC(=O)c1ccc(-c2cn(-c3ccccc3)c3c(=O)[nH]cnc23)cc1 [Ex-98]
IC50 [1]: > 1000 nM

N#Cc1ccc(-c2cn(-c3ccccc3)c3c(=O)[nH]cnc23)cc1 [Ex-99]
IC50 [1]: 100 to 1000 nM

N#Cc1cccc(-c2cn(-c3ccccc3)c3c(=O)[nH]cnc23)c1 [Ex-100]
IC50 [1]: 100 to 1000 nM

O=C(O)c1cccc(-c2cn(-c3ccccc3)c3c(=O)[nH]cnc23)c1 [Ex-101, 3-(4-Oxo-5-phenyl-4,5-dihydro-3H-pyrrolo[3,2-d]pyrimidin-7-yl)-benzoic acid]
IC50 [1]: > 1000 nM

O=C(O)c1ccc(-c2cn(-c3ccccc3)c3c(=O)[nH]cnc23)cc1 [Ex-102]
IC50 [1]: 100 to 1000 nM

CC(C)(O)CCOc1ccc(-c2cn(-c3ccccc3)c3nc[nH]c(=O)c23)c(F)c1 [Ex-107, 5-(2-fluoro-4-(3-hydroxy-3-methylbutoxy)phenyl)-7-phenyl-3,7-dihydro-4H-pyrrolo[2,3-d]pyrimidin-4-one]
EC50 [2]: < 1000 nM

CC(C)(O)CCOc1ccc(-c2cn(-c3ccccc3)c3nc[nH]c(=O)c23)cc1F [Ex-123]
EC50 [2]: < 1000 nM

CC(C)(O)CCOc1ccc(-c2cn(-c3ccccc3)c3nc[nH]c(=O)c23)cc1C#N [Ex-128]
EC50 [2]: < 1000 nM
